Data reported in publication PMC6290073, “Tropinone synthesis via an atypical polyketide synthase and P450-mediated cyclization” (Nature Communications, 2018).
Where two headings read alike, the source gives them in different places.

Columns and labels:
AbCYP82M3 = target: T1, AbCYP82M3 (Atropa belladonna, UniProt A0A3G4RHY7); settings: 1 mM NADPH, pH 7.0, ionic strength 0.05, 20% glycerol, 30 °C
T1 construct: gene CYP82M3

AbPYKS [1] = target: T2, AbPYKS (Atropa belladonna, UniProt A0A3G4RHW3); settings: substrate inhibition constant, 25 mM potassium phosphate pH 8.0, 30 °C
T2 construct: gene OGAS
T2 sequence (A0A3G4RHW3 1-392 limits assumed): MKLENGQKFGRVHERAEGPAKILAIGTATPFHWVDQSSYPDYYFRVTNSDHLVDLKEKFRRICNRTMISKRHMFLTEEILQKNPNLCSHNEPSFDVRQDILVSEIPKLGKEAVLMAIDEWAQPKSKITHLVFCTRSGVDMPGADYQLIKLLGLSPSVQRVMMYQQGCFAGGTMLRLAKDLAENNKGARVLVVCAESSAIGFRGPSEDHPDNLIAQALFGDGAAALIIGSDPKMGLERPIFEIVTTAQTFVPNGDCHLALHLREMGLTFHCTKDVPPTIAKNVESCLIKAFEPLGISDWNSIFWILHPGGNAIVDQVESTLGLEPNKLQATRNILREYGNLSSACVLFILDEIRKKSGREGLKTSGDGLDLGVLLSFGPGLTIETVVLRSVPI

AbPYKS [2] = target: T2, AbPYKS; settings: apparent; 0.1 mM malonyl-CoA, 25 mM potassium phosphate pH 8.0, 30 °C
[3] = test system: CC(C)(COP(=O)(O)OP(=O)(O)OC[C@H]1O[C@@H](n2cnc3c(N)ncnc32)[C@H](O)[C@@H]1OP(=O)(O)O)[C@@H](O)C(=O)NCCC(=O)NCCSC(=O)CC(=O)O; assay: purified protein; settings: apparent, 0.05 mM N-methyl-Δ^1-pyrrolinium, 25 mM potassium phosphate pH 8.0, 30 °C

T1 sequence (A0A3G4RHY7 1-519): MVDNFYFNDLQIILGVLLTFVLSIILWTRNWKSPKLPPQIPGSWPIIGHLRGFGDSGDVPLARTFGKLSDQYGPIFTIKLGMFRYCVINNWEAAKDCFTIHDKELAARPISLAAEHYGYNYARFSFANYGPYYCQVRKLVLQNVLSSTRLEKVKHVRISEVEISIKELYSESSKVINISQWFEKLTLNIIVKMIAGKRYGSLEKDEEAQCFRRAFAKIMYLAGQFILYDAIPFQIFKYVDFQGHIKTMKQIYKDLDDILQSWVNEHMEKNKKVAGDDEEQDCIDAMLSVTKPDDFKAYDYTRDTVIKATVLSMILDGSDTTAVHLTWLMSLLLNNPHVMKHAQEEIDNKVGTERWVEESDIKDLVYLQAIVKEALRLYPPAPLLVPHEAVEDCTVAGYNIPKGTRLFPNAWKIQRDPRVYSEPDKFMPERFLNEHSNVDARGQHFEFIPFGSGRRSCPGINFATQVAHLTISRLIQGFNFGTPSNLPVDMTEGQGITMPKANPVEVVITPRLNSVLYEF

## CN1CCCC1CC(=O)CC(=O)O (racemic) [compound 5, 4-(1-methyl-2-pyrrolidinyl)-3-oxobutanoic acid]
AbCYP82M3
  Km: 631 ± 26 µM

## CC(C)(COP(=O)(O)OP(=O)(O)OC[C@H]1O[C@@H](n2cnc3c(N)ncnc32)[C@H](O)[C@@H]1OP(=O)(O)O)[C@@H](O)C(=O)NCCC(=O)NCCSC(=O)CC(=O)O [Malonyl-CoA]
AbPYKS [1]; 0.05 mM N-methyl-Δ^1-pyrrolinium
  K i /: 280 ± 0.9 µM

## C[N+]1=CCCC1 [compound 4, N-methyl-Δ^1-pyrrolinium]
AbPYKS [2]
  Km: 10 ± 0.6 µM
AbPYKS [1]; 0.1 mM malonyl-CoA
  K i /: 103 ± 16 µM

## AbPYKS (Atropa belladonna)
[3]
  Km: 12 ± 1 µM
  Vmax: 13.8 µmol/min/mg
  kcat: 10 ± 0.1 s⁻¹
  kcat/Km: 848000 ± 90000 M⁻¹ s⁻¹
